Measured values reported in patent US20080038289A1, “Antitumor Agent” (priority 2004, published 2008).

What was measured:
[1] = test system: HL-60 cells (human leukemia cells); test: Apoptosis induction in HL-60 cells, propidium iodide (Example 9); assay type: cell-based; conditions: 20 μM, incubation for 6 hours; control 9.3
Method: HL-60 cells (human leukemia cells) were suspended in an RPMI-1640 with 10% fetal bovine serum added thereto, and the number of cells was counted. The suspension was adjusted to have a density of 5×10^5 cells/mL. Each 2 mL of the suspension was dispensed into Petri dishes. SBS prepared in Preparation Example 3 was diluted with dimethyl sulfoxide to 2 mM, and each 20 μL of the suspension was added thereto to have a final concentration of 20 μM. Only dimethyl sulfoxide was added to a control. Incubation was performed for 6 hours under the conditions of 37° C. and 5% CO2, and the cells were recovered, and washed with a phosphate buffered saline (PBS) by centrifugation. Four-percent paraformaldehyde was added to the cells, and the cells were allowed to stand at room temperature for 30 minutes to be fixed. After centrifugation, the supernatant was removed, and a PBS was added thereto, and the mixture was centrifuged and washed, and the cells were suspended in 200 μL of a PBS. Five-hundred microliters of 0.05 mg/mL propidium iodide was added thereto, and the mixture was incubated at 4° C. for 10 minutes. Thereafter, the number of whole cells and the number of cells which had undergone apoptosis were measured, and a ratio of induction of apoptosis was calculated according to the following equation (Table 11). […]

[2] = test system: IMC carcinoma tumor cells; test: IMC solid tumor growth in CDF1 mice, SBS orally (Example 10); assay type: in vivo; conditions: about 15.6 mg/kg/day orally in peanut oil with 10% ethanol; three weeks after transplantation of IMC
Description: As ICR mice (Japan SLC, Inc.), 5-week old female mice were purchased, and the animals were used at 6 weeks old. Sarcoma-180 (hereinafter, S-180) tumor cells were transplanted into an abdominal cavity of the ICR mice to give an ascites, and the ascites was passaged by transplanting into other mice every 7 days. An ascites on day 7 after passage was collected, washed with a phosphate buffered saline by centrifugation, and suspended in the same buffer. The number of cells was counted, and the suspension was adjusted to have a density of 5×10^7 cells/mL. Into ICR mice at right abdominal part was subcutaneously transplanted 0.1 mL of the cell suspension, and the size of a solid tumor after 7 days was measured. […] The size of the tumor was measured after four weeks from transplantation of S-180. In addition, as the size of the tumor, a length and a width were measured, to obtain the volume according to the following equation, followed by comparison. […]
The tumor-suppressing activity was calculated according to the following equation. […]
As CDF1 mice (Japan SLC, Inc.), 6-week old female mice were purchased, and the animals were used at 7 weeks olds. […] The number of cells was counted. […] Seven days after transplantation, take of a tumor was confirmed, and the size of a solid tumor was measured. […]

[3] = Toxicity on oral administration to mice; assay type: in vivo; conditions: orally administered, 25 mg/mouse/day

For C=CC(C)(O)CC/C=C(\C)CCCC(C)(O)CCCC(C)(O)CCCC(C)(O)CCCC(C)(O)CCCC(C)(O)CCCC(C)(O)CCC=C(C)C (stereo not shown) [SBS, hypsiziprenol A9], the “Apoptosis-Inducing Ratio (%)” value [1] was 30.1%, the “Tumor Volume (Mean ± SD)” value [2] was 534.5 ± 92.3 mm^3 and the “Tumor-Suppressing Activity (%)” value [2] was 46.2%. The toxicity [3] was “toxicity is not observed”.
